Reference: US20260256792A1, “TREATMENT OF CHRONIC SPONTANEOUS URTICARIA BY ADMINISTERING (R)-2-[3-[4-AMINO-3-(2-FLUORO-4-PHENOXY-PHENYL)PYRAZOLO[3,4-D]PYRIMIDIN-1-YL]PIPERIDINE-1-CARBONYL]-4-METHYL-4-[4-(OXETAN-3-YL)PIPERAZIN-1-YL]PENT-2-ENENITRILE” (priority 2023, published 2026)

Test system: moderate-to-severe chronic spontaneous urticaria (CSU)
Experiment: Phase 2 CSU study: itch severity score over 7 days (ISS7)
Assay type: in vivo, human
Settings: ITT
Text: The study comprises a 12 week, randomized, double-blind, placebo-controlled, multi-center, dose-ranging efficacy and safety phase, followed by a 40 week open label extension (OLE) phase (see FIG. 1). The study consists of three phases and an optional OLE phase. […] Clinically, CSU is characterized by the spontaneous and recurrent appearance of pruritic hives. The proposed primary endpoints were the UAS7 at Week 12 in EU and EU reference countries and the ISS7 in the US. Regardless of where a participant was from, all assessments were the same. The UAS7 score is a composite score containing both the HSS7 and the ISS7. This allowed a global assessment of the two key components of urticaria: hives and itch. […] The UAS is a validated PRO measure. […] The daily UAS scores range from 0 to 6 point/day. […] Patients were to complete the UAS using the e-diary. […] The following secondary endpoints were to be analyzed using the same approach as for the primary endpoint: • Change from baseline in UAS7 at Week 4 • Change from baseline in UAS7 at Week 12 (for US and US reference countries) • Change from baseline in ISS7 at Week 12 (except US and US reference countries) • Change from baseline in HSS7 at Week 12

CC(C)(C=C(C#N)C(=O)N1CCC[C@@H](n2nc(-c3ccc(Oc4ccccc4)cc3F)c3c(N)ncnc32)C1)N1CCN(C2COC2)CC1 [rilzabrutinib, (R)-2-[3-[4-amino-3-(2-fluoro-4-phenoxy-phenyl)pyrazolo[3,4-d]pyrimidin-1-yl]piperidine-1-carbonyl]-4-methyl-4-[4-(oxetan-3-yl)piperazin-1-yl]pent-2-enenitrile]
ISS7 Change difference for rilzabrutinib vs. placebo LS Mean (95% CI) (400 mg BID, Week 2): −2.27 | ISS7 Change from baseline LS Mean (SE) (400 mg BID, Week 2): −5.68 (0.80) | ISS7 Post-baseline Mean (SD) (400 mg BID, Week 2): 10.40 (5.75) | ISS7 % Change difference for rilzabrutinib vs. placebo LS Mean (95% CI) (400 mg BID, Week 3): −18.44% | ISS7 % Change from baseline LS Mean (SE) (400 mg BID, Week 3): −40.88 (5.26) % | ISS7 Change difference for rilzabrutinib vs. placebo LS Mean (95% CI) (400 mg BID, Week 3): −2.60 | ISS7 Change from baseline LS Mean (SE) (400 mg BID, Week 3): −6.68 (0.84) | ISS7 Post-baseline Mean (SD) (400 mg BID, Week 3): 9.21 (6.17) | ISS7 % Change difference for rilzabrutinib vs. placebo LS Mean (95% CI) (400 mg BID, Week 4): −18.54% | ISS7 % Change from baseline LS Mean (SE) (400 mg BID, Week 4): −44.30 (5.62) % | ISS7 Change difference for rilzabrutinib vs. placebo LS Mean (95% CI) (400 mg BID, Week 4): −2.62 | ISS7 Change from baseline LS Mean (SE) (400 mg BID, Week 4): −7.24 (0.89) | ISS7 Post-baseline Mean (SD) (400 mg BID, Week 4): 8.12 (6.28) | ISS7 % Change difference for rilzabrutinib vs. placebo LS Mean (95% CI) (400 mg BID, Week 5): −9.84% | ISS7 % Change from baseline LS Mean (SE) (400 mg BID, Week 5): -43.1% | ISS7 Change difference for rilzabrutinib vs. placebo LS Mean (95% CI) (400 mg BID, Week 5): −1.32 | ISS7 Change from baseline LS Mean (SE) (400 mg BID, Week 5): −6.89 (0.88) | ISS7 Post-baseline Mean (SD) (400 mg BID, Week 5): 8.53 (6.95) | ISS7 % Change difference for rilzabrutinib vs. placebo LS Mean (95% CI) (400 mg BID, Week 6): −13.75% | ISS7 % Change from baseline LS Mean (SE) (400 mg BID, Week 6): −42.18 (5.84) % | ISS7 Change difference for rilzabrutinib vs. placebo LS Mean (95% CI) (400 mg BID, Week 6): −1.99 | ISS7 Change from baseline LS Mean (SE) (400 mg BID, Week 6): −6.87 (0.93) | ISS7 Post-baseline Mean (SD) (400 mg BID, Week 6): 8.62 (6.58) | ISS7 % Change difference for rilzabrutinib vs. placebo LS Mean (95% CI) (400 mg BID, Week 7): −18.93% | ISS7 % Change from baseline LS Mean (SE) (400 mg BID, Week 7): −47.79 (5.68) % | ISS7 Change difference for rilzabrutinib vs. placebo LS Mean (95% CI) (400 mg BID, Week 7): −2.77 | ISS7 Change from baseline LS Mean (SE) (400 mg BID, Week 7): −7.77 (0.91) | ISS7 Post-baseline Mean (SD) (400 mg BID, Week 7): 8.03 (6.39) | ISS7 % Change difference for rilzabrutinib vs. placebo LS Mean (95% CI) (400 mg BID, Week 8): −20.00% | ISS7 % Change from baseline LS Mean (SE) (400 mg BID, Week 8): −52.80 (5.92) % | ISS7 Change difference for rilzabrutinib vs. placebo LS Mean (95% CI) (400 mg BID, Week 8): −2.86 | ISS7 Change from baseline LS Mean (SE) (400 mg BID, Week 8): −8.47 (0.93) | ISS7 Post-baseline Mean (SD) (400 mg BID, Week 8): 7.18 (6.69) | ISS7 % Change difference for rilzabrutinib vs. placebo LS Mean (95% CI) (400 mg BID, Week 9): −20.94% | ISS7 % Change from baseline LS Mean (SE) (400 mg BID, Week 9): −51.80 (5.94) % | ISS7 Change difference for rilzabrutinib vs. placebo LS Mean (95% CI) (400 mg BID, Week 9): −2.77 | ISS7 Change from baseline LS Mean (SE) (400 mg BID, Week 9): −8.27 (0.96) | ISS7 Post-baseline Mean (SD) (400 mg BID, Week 9): 7.44 (7.20) | ISS7 % Change difference for rilzabrutinib vs. placebo LS Mean (95% CI) (400 mg BID, Week 10): −10.95% | ISS7 % Change from baseline LS Mean (SE) (400 mg BID, Week 10): −48.75 (6.31) % | ISS7 Change difference for rilzabrutinib vs. placebo LS Mean (95% CI) (400 mg BID, Week 10): −1.72 | ISS7 Change from baseline LS Mean (SE) (400 mg BID, Week 10): −8.01 (1.01) | ISS7 Post-baseline Mean (SD) (400 mg BID, Week 10): 8.06 (7.29) | ISS7 % Change difference for rilzabrutinib vs. placebo LS Mean (95% CI) (400 mg BID, Week 11): −15.82% | ISS7 % Change from baseline LS Mean (SE) (400 mg BID, Week 11): −49.45 (6.23) % | ISS7 Change difference for rilzabrutinib vs. placebo LS Mean (95% CI) (400 mg BID, Week 11): −2.07 | ISS7 Change from baseline LS Mean (SE) (400 mg BID, Week 11): −7.93 (0.99) | ISS7 Post-baseline Mean (SD) (400 mg BID, Week 11): 7.76 (7.01) | ISS7 % Change difference for rilzabrutinib vs. placebo LS Mean (95% CI) (400 mg BID, Week 12): −13.69% | ISS7 % Change from baseline LS Mean (SE) (400 mg BID, Week 12): −50.27 (6.54) % | ISS7 Change difference for rilzabrutinib vs. placebo LS Mean (95% CI) (400 mg BID, Week 12): −1.75 | ISS7 Change from baseline LS Mean (SE) (400 mg BID, Week 12): −8.06 (1.02) | ISS7 Post-baseline Mean (SD) (400 mg BID, Week 12): 7.61 (7.18) | ISS7 % Change difference for rilzabrutinib vs. placebo LS Mean (95% CI) (400 mg QPM, Week 1): −8.87% | ISS7 % Change from baseline LS Mean (SE) (400 mg QPM, Week 1): −19.33 (5.35) % | ISS7 Change difference for rilzabrutinib vs. placebo LS Mean (95% CI) (400 mg QPM, Week 1): −1.47 | ISS7 Change from baseline LS Mean (SE) (400 mg QPM, Week 1): −3.47 (0.79) | ISS7 Post-baseline Mean (SD) (400 mg QPM, Week 1): 13.08 (4.46) | ISS7 % Change difference for rilzabrutinib vs. placebo LS Mean (95% CI) (400 mg QPM, Week 2): −5.64% | ISS7 % Change from baseline LS Mean (SE) (400 mg QPM, Week 2): −25.13 (5.32) % | ISS7 Change difference for rilzabrutinib vs. placebo LS Mean (95% CI) (400 mg QPM, Week 2): −0.86 | ISS7 Change from baseline LS Mean (SE) (400 mg QPM, Week 2): −4.27 (0.81) | ISS7 Post-baseline Mean (SD) (400 mg QPM, Week 2): 12.44 (4.70) | ISS7 % Change difference for rilzabrutinib vs. placebo LS Mean (95% CI) (400 mg QPM, Week 3): −7.34% | ISS7 % Change from baseline LS Mean (SE) (400 mg QPM, Week 3): −29.78 (5.33) % | ISS7 Change difference for rilzabrutinib vs. placebo LS Mean (95% CI) (400 mg QPM, Week 3): −0.97 | ISS7 Change from baseline LS Mean (SE) (400 mg QPM, Week 3): −5.06 (0.85) | ISS7 % Change difference for rilzabrutinib vs. placebo LS Mean (95% CI) (400 mg QPM, Week 4): −5.09% | ISS7 % Change from baseline LS Mean (SE) (400 mg QPM, Week 4): −30.86 (5.64) % | ISS7 Change difference for rilzabrutinib vs. placebo LS Mean (95% CI) (400 mg QPM, Week 4): −0.67 | ISS7 Change from baseline LS Mean (SE) (400 mg QPM, Week 4): −5.29 (0.90) | ISS7 Post-baseline Mean (SD) (400 mg QPM, Week 4): 11.30 (4.76) | ISS7 % Change difference for rilzabrutinib vs. placebo LS Mean (95% CI) (400 mg QPM, Week 5): 0.86% | ISS7 % Change from baseline LS Mean (SE) (400 mg QPM, Week 5): −32.42 (5.42) % | ISS7 Change difference for rilzabrutinib vs. placebo LS Mean (95% CI) (400 mg QPM, Week 5): 0.08 | ISS7 Change from baseline LS Mean (SE) (400 mg QPM, Week 5): −5.48 (0.88) | ISS7 Post-baseline Mean (SD) (400 mg QPM, Week 5): 11.00 (4.61) | ISS7 % Change difference for rilzabrutinib vs. placebo LS Mean (95% CI) (400 mg QPM, Week 6): −8.64% | ISS7 % Change from baseline LS Mean (SE) (400 mg QPM, Week 6): −37.07 (5.96) % | ISS7 Change difference for rilzabrutinib vs. placebo LS Mean (95% CI) (400 mg QPM, Week 6): −1.39 | ISS7 Change from baseline LS Mean (SE) (400 mg QPM, Week 6): −6.28 (0.95) | ISS7 Post-baseline Mean (SD) (400 mg QPM, Week 6): 10.23 (5.19) | ISS7 % Change difference for rilzabrutinib vs. placebo LS Mean (95% CI) (400 mg QPM, Week 7): −9.66% | ISS7 % Change from baseline LS Mean (SE) (400 mg QPM, Week 7): −38.52 (5.84) % | ISS7 Change difference for rilzabrutinib vs. placebo LS Mean (95% CI) (400 mg QPM, Week 7): −1.37 | ISS7 Change from baseline LS Mean (SE) (400 mg QPM, Week 7): −6.37 (0.93) | ISS7 Post-baseline Mean (SD) (400 mg QPM, Week 7): 10.60 (5.27) | ISS7 % Change difference for rilzabrutinib vs. placebo LS Mean (95% CI) (400 mg QPM, Week 8): −5.60% | ISS7 % Change from baseline LS Mean (SE) (400 mg QPM, Week 8): −38.39 (6.03) % | ISS7 Change difference for rilzabrutinib vs. placebo LS Mean (95% CI) (400 mg QPM, Week 8): −0.61 | ISS7 Change from baseline LS Mean (SE) (400 mg QPM, Week 8): −6.22 (0.96)
